Biological target: T1, glycogen synthase kinase 3β (GSK-3β) (Homo sapiens, UniProt P49841)
T1 construct: gene GSK3B; recombinant His-tagged GSK-3β
Experiment: BLI on immobilized GSK-3β; also DARTS in lysate and Kinase-Glo inhibition (IC50 […])
Assay type: binding

T1 sequence (P49841 whole entry): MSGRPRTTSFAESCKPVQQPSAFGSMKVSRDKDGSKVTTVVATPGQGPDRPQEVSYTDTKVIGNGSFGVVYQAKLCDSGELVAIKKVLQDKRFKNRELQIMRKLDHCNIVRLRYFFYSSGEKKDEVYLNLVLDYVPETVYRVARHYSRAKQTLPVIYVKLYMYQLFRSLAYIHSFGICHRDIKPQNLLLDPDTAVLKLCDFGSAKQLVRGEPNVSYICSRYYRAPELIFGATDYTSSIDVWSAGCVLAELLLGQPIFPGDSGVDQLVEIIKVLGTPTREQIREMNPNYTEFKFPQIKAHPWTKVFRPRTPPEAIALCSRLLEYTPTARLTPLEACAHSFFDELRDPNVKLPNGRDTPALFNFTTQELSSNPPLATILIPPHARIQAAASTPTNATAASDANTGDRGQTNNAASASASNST

For `Cc1c(O)c(C)c2c(c1O)C(=O)C[C@@H](c1ccc(O)cc1)O2` [farrerol], the Kd was 634 µM.
